The values below come from ChEMBL document CHEMBL3045584, “1-(6-Halonicotinyl)-2-nitromethylene-imidazolidines as Potential New Insecticides” (1992).

Activity calls are given as the source filed them. The rule behind the calls is not given here.

The subject of one experiment is Nephotettix cincticeps. Kind of experiment: Insecticidal activity against Nephotettix cincticeps (green rice leafhopper) measured after 5 days. It counts as functional.
Compound `O=[N+]([O-])/C=C1\NCCN1Cc1cccnc1Cl` showed an LC90 of 200 ppm.

With `O=[N+]([O-])/C=C1\NCCN1Cc1cccc(Cl)c1`, the LC90 is 200 ppm.

`COc1ccc(CN2CCN/C2=C\[N+](=O)[O-])cc1` yielded an LC90 of 200 ppm.

As for `O=[N+]([O-])/C=C1\NCCN1Cc1ccccn1`, the LC90 was found to be 200 ppm.

Turning to `Cc1ccc(CN2CCN/C2=C\[N+](=O)[O-])cc1`, the LC90 was 200 ppm.

`O=[N+]([O-])/C=C1\NCCN1Cc1ccc(Cl)nc1`: the LC90 was 0.32 ppm.

Take `O=[N+]([O-])C=C1NCCN1` [2-(NITROMETHYLENE)IMIDAZOLIDINE]: the LC90 worked out at 1000 ppm.

The compound `O=[N+]([O-])/C=C1\NCCN1Cc1cncc(Cl)c1` yielded an LC90 of 40 ppm.

The compound `O=[N+]([O-])/C=C1\NCCN1Cc1ccnc(Cl)c1` yielded an LC90 of 200 ppm.

The compound `O=[N+]([O-])/C=C1\NCCN1Cc1ccc([N+](=O)[O-])cc1` registered an LC90 of 200 ppm.

`O=[N+]([O-])/C=C1\NCCN1Cc1ccc(F)nc1` had an LC90 of 0.32 ppm.

Compound `O=[N+]([O-])/C=C1\NCCN1Cc1ccccc1` displayed an LC90 of 200 ppm.

Turning to `O=[N+]([O-])/C=C1\NCCN1Cc1ccc(Cl)cc1`, the LC90 was 40 ppm.

As to `O=[N+]([O-])/C=C1\NCCN1Cc1ccc(Br)nc1`, the LC90 came to 0.32 ppm.

As for `CSc1ccc(CN2CCN/C2=C\[N+](=O)[O-])cn1`, the LC90 is 1000 ppm.

Regarding `O=[N+]([O-])/C=C1\NCCN1Cc1ccc(Cl)cn1`, the LC90 is recorded as 200 ppm.

`O=[N+]([O-])/C=C1\NCCN1Cc1ccncc1` gave an LC90 of 8 ppm.

Take `N#Cc1ccc(CN2CCN/C2=C\[N+](=O)[O-])cn1`: the LC90 is reported as 200 ppm.

For the compound `Cc1ccc(CN2CCN/C2=C\[N+](=O)[O-])cn1`, the LC90 stood at 1.6 ppm.

In turn, `O=[N+]([O-])/C=C1\NCCN1Cc1ccc(C(F)(F)F)nc1` showed an LC90 of 8 ppm.

Turning to `O=[N+]([O-])/C=C1\NCCN1Cc1cccnc1`, the LC90 was determined as 8 ppm.

A further experiment deals with Nephotettix cincticeps. Kind of experiment: Insecticidal activity against Nephotettix cincticeps (green rice leafhopper) measured at 100 ppm after 5 days. It counts as functional, organism-based.
As to `O=[N+]([O-])/C=C1\NCCN1Cc1ccccc1Cl`, the LC90 entry was “inactive”.
